The values below come from patent EP0971717B1, “CYTOTOXIC AMINO SUGAR AND RELATED SUGAR DERIVATIVES OF INDOLOPYRROLOCARBAZOLES” (Bristol-Myers Squibb Company, priority 1996, dated 1998).

Assay [1] has as its target T1, purified human topoisomerase I (Homo sapiens, UniProt P11387).
T1 construct: purchased Topogen
T1 sequence (P11387 1-765): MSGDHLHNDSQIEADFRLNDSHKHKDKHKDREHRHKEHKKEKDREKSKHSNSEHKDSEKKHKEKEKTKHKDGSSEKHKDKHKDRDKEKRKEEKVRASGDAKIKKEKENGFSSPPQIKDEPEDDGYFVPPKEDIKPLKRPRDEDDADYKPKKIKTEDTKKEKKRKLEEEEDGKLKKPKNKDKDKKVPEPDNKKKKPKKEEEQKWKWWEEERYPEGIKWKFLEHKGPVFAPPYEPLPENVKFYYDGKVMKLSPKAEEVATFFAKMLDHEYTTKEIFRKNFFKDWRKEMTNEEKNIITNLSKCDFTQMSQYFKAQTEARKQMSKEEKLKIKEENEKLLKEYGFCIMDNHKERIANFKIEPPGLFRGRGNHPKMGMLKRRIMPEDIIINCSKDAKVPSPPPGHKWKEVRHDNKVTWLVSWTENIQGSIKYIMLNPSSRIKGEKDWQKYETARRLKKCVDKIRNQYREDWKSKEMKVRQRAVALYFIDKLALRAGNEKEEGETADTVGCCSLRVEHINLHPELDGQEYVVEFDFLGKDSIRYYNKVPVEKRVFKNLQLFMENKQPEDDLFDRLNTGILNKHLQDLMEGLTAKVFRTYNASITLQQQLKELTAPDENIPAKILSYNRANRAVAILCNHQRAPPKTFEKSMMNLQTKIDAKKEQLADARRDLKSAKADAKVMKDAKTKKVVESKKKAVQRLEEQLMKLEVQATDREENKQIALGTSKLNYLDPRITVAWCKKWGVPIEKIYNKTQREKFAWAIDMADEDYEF
In words: Topoisomerase I mediated single strand break formation in DNA (in vitro). The assay is classed as biochemical. To be noted: for EC50: PM2 DNA, 30 minutes at 37° C, median effective concentration for single strand DNA break formation; for Topo-I activity: result in words. As for the experimental part:
Samples dissolved in 100% DMSO as either […] or 10 mg/ml solutions, unless otherwise stated, were diluted in Tris-EDTA buffer. Marine bacteriophage PM2 DNA (Boehringer Mannheim) was also diluted in Tris-EDTA buffer to a concentration of 0.02 µg/µl. Different dilutions of compound being evaluated were mixed with diluted DNA and this mixture was added to 1000 unit (one unit of enzyme activity is defined as the amount capable of relaxing 100 ng of supercoiled DNA in approximately 30 minutes at 37°C) aliquots of purified human topoisomerase I (Topogen) in 2X reaction buffer to start the reaction. The compound - DNA - enzyme mixture was incubated for 30 minutes at 37° C before stopping the reaction with warm stop buffer containing sodium dodecyl sulfate and proteinase K (Sigma). These mixtures were allowed to incubate at 37° C for another 10 minutes, at which time the mixtures were removed from the waterbath and extracted with a 24:1 mixture of chloroform/isoamyl alcohol. Following centrifugation, aliquots of the aqueous phases were placed in wells of a 0.9% agarose (SeaKem) gel in Tris-borate buffer containing 0.5 µg/ml of ethidium bromide and subjected to electrophoresis for 15 hours to separate the different topological isomers and nicked and broken DNAs. After destaining the gel in water, the ethidium bromide stained DNA reaction products were visualized by exposing the gel to UV irradiation. Negatives of photographs of the irradiated gels were scanned with a densitometer and areas under the peaks were calculated in order to obtain percent single strand DNA break formation for each sample. A median effective concentration(EC50) was obtained for each compound by interpolation between points of the resulting dose - effect curve which defines the potency of the compound for its effect for inducing topoisomerase I mediated single strand breaks in DNA.

Assay [2] relates to HCT116 human colon carcinoma cells. Kind of assay: In-vitro cell-based cytotoxicity, XTT assay. To be noted: HCT-116, 72 hrs incubation, absorbance at 450 nm. As for the experimental part: The proliferation inhibition activity against human colon cell line was measured as follows.
Cytotoxicity was assessed in HCT116 human colon carcinoma cells by XTT (2,3-bis(2-methoxy-4-nitro- 5-sulfophenyl)-5-[(phenylamino)carbonyl]-2H-tetrazolium hydroxide assay as described in the literature by Scudiero, DA, Shoemaker, RH, Paull, KD, Monks, A, Tierney, S, Nofziger, TH, Currens, MJ, Seniff, D, and Boyd, MR. Evaluation of a soluble tetrazolium/formazan assay for cell growth and drug sensitivity in culture using human and other tumor cell lines, was done according to the procedure described in Cancer Res. 48: 4827-4833, 1988. Cells were plated at 4000 cells/well in 96 well microtiter plates and 24 hrs later drugs were added and serial diluted. The cells were incubated at 37° C for 72 hrs at which time the tetrazolium dye, XTT, containing phenazine methosulfate was added. A dehydrogenase enzyme in live cells reduces the XTT to a form that absorbs light at […] which can be quantitated spectrophotometrically. The greater the absorbance the greater the number of live cells. The results are expressed as an IC50 which is the drug concentration required to inhibit cell proliferation (i.e. absorbance at 450 nm) to 50% of that of untreated control cells.
(Tetrazolium dyes change colour on reduction, which living cells bring about.)

The subject of assay [3] is P388 leukemia cells. In words: In-vivo anti-tumor efficacy against ip implanted P388 leukemia. Details: species or system mice (BDF1 or CDF1); MST: unit not given here. Conditions: for T/C (%): ip, MST(T)/MST(C) x 100, activity defined as >= 125%; for MST: one ip injection one day after implant, median survival time of treated mice. The procedure: In-vivo antitumor experiments were initiated by implanting mice (BDF1 or CDF1) ip with 10(6) P388 leukemia cells. Treatments were initiated one day after implant and involved one ip injection per dose level; several dose levels were evaluated per compound. Six mice were typically used per dose level in treatment groups, and eight to ten mice were used as parallel untreated leukemic controls. Evaluation of activity was made on the basis of comparing the median survival time (MST) of treated (T) mice with the MST of control (C) mice. Activity was defined as a %T/C of > or = 125%, calculated as: MST(T)/MST(C) x 100 = %T/C Table I

The structures appear in SMILES notation.

By EC50 is commonly meant the concentration needed to bring the measured effect to its halfway point. In assay [1], `NC[C@H]1O[C@@H](n2c3ccc(F)cc3c3c4c(c5c6cc(F)ccc6[nH]c5c32)C(=O)N(O)C4=O)[C@H](O)[C@@H](O)[C@@H]1O` [Example 31, 3,9-Difluoro-12,13-dihydro-13-[6-amino-β-D-glucopyranosyl]-5H-indolo[2,3-a]pyrrolo [3,4-c] carbazole-5,7(6-hydroxy)dione] returned an EC50 below 10 nM.
Turning to `CO[C@H]1[C@H](O)[C@@H](O)[C@H](n2c3c(Cl)cccc3c3c4c(c5c6cccc(Cl)c6[nH]c5c32)C(=O)NC4=O)O[C@@H]1CO` [rebeccamycin, reference compound], the Topo-I activity result in assay [1] was “not Topo-I active”.
For the compound `[N-]=[N+]=NC[C@H]1O[C@@H](n2c3ccc(F)cc3c3c4c(c5c6cc(F)ccc6[nH]c5c32)C(=O)N(O)C4=O)[C@H](O)[C@@H](O)[C@@H]1O` [Example 30, 3,9-Difluoro-12,13-dihydro-13-[6-azido-β-D-glucopyranosyl]-5H-indolo[2,3-a]pyrrolo [3,4-c] carbazole-5,7(6-hydroxy)dione], in assay [1], the EC50 was below 10 nM.
The term IC50 denotes the concentration that gives 50% inhibition. In assay [1], `CS(=O)(=O)OC[C@H]1O[C@@H](n2c3ccc(F)cc3c3c4c(c5c6cc(F)ccc6[nH]c5c32)C(=O)NC4=O)[C@H](O)[C@@H](O)[C@@H]1O` [Example 15, 3,9-Difluoro-12,13-dihydro-13-[6-O-(methylsulfonyl)-β-D-glucopyranosyl]-5H-indolo[2,3-a]pyrrolo[3,4-c]carbazole-5,7(6H)-dione] yielded a concentration giving a half-maximal response (EC50) of 30 nM. For the same compound, in assay [2], the IC50 was 260 nM.
For `O=C1c2c(c3c4cc(F)ccc4n([C@@H]4O[C@H](CF)[C@@H](O)[C@H](O)[C@H]4O)c3c3sc4ccc(F)cc4c23)C(=O)N1O` [Example 69], the EC50 in assay [1] amounted to 30 nM.
Turning to `O=C1c2c(c3c4cc(F)ccc4n([C@@H]4O[C@H](CF)[C@@H](O)[C@H](O)[C@H]4O)c3c3[nH]c4ccc(F)cc4c23)C(=O)N1O` [Example 48], in assay [1], the midpoint of the response, the EC50, lay at 400 nM.
`O=C1NC(=O)c2c1c1c3cc(F)ccc3[nH]c1c1c2c2cc(F)ccc2n1[C@@H]1O[C@H](CF)[C@@H](O)[C@H](O)[C@H]1O` [Example 47] came in with an EC50 in assay [1] of 100 nM.
With `NC[C@H]1O[C@@H](n2c3cc(F)ccc3c3c4c(c5c6ccc(F)cc6[nH]c5c32)C(=O)N(N)C4=O)[C@H](O)[C@@H](O)[C@@H]1O` [Example 18, 6-Amino-13-(6-amino-6-deoxy-β-D-glucopyranosyl)-2,10-difluoro-12,13-dihydro-5H-indolo[2,3-a]pyrrolo[3,4-c]carbazole-5,7(6H)-dione], in assay [1], the “Topo-I activity (concentration without activity)” value was “greater than 100 micro molar” and the EC50 was above 100000 nM. The compound also registered a 50% inhibitory concentration (IC50) in assay [2] above 1450 nM.
With `O=C1NC(=O)c2c1c1c3cc(F)ccc3[nH]c1c1c2c2cc(F)ccc2n1[C@@H]1O[C@H](CN2CCOCC2)[C@@H](O)[C@H](O)[C@H]1O` [Example 29, 3,9-Difluoro-12,13-dihydro-13-[6-(4N-morpholino)-β-D-glucopyranosyl]-5H-indolo[2,3-a]pyrrolo [3,4-c] carbazole-5,7(6H)-dione], the “T/C (%)” value in assay [3] (P388, 25 mg/kg/dose) is 127%; in assay [3] (P388, 50 mg/kg/dose), 109%; in assay [3] (P388, 100 mg/kg/dose), 150%; in assay [3] (P388, 200 mg/kg/dose) it was 91%. Further, the MST in assay [3] (P388, 25 mg/kg/dose) came out at 14.0; in assay [3] (P388, 50 mg/kg/dose), 12.0; in assay [3] (P388, 100 mg/kg/dose) it was 16.5; in assay [3] (P388, 200 mg/kg/dose) it was 10. This compound came in with an EC50 in assay [1] of 10 nM. This compound displayed an IC50 in assay [2] of 90 nM.
For the compound `O=C1NC(=O)c2c1c1c3cc(F)ccc3[nH]c1c1c2c2cc(F)ccc2n1[C@@H]1O[C@H](Cn2ccnc2)[C@@H](O)[C@H](O)[C@H]1O` [Example 34], in assay [1], the EC50 turned out to be 23000 nM.
In the case of `CN1CCN(C[C@H]2O[C@@H](n3c4ccc(F)cc4c4c5c(c6c7cc(F)ccc7[nH]c6c43)C(=O)NC5=O)[C@H](O)[C@@H](O)[C@@H]2O)CC1` [Example 35], a half-maximal response in assay [1] (EC50) required 750 nM. Also, the IC50 in assay [2] came to 500 nM.
With `NC[C@H]1O[C@@H](n2c3ccc(F)cc3c3c4c(c5c6cc(F)ccc6[nH]c5c32)C(=O)NC4=O)[C@H](O)[C@@H](O)[C@@H]1O` [Example 19], the “T/C (%)” value in assay [3] (P388, 25 mg/kg/dose) stood at 155%; in assay [3] (P388, 50 mg/kg/dose), 168%; in assay [3] (P388, 100 mg/kg/dose) it was 182%; in assay [3] (P388, 200 mg/kg/dose) it was 82%. Further, the MST in assay [3] (P388, 25 mg/kg/dose) is reported as 17.0; in assay [3] (P388, 50 mg/kg/dose) it was 18.5; in assay [3] (P388, 100 mg/kg/dose) it was 20.0; in assay [3] (P388, 200 mg/kg/dose), 9.0. The anti-tumor activity entry in assay [3] (result in words) was “effective anti-tumor agent”. This compound registered an EC50 in assay [1] of 40 nM. Also, the Topo-I activity entry in assay [1] is on record as “sub micro molar”. Besides, in assay [2], the midpoint of inhibition, the IC50, lay at 110 nM.
For `CCN(CC)C[C@H]1O[C@@H](n2c3ccc(F)cc3c3c4c(c5c6cc(F)ccc6[nH]c5c32)C(=O)N(O)C4=O)[C@H](O)[C@@H](O)[C@@H]1O` [Example 68], a half-maximal effect in assay [1] (EC50) was put at 30 nM.
